ChEMBL document CHEMBL1139547, “Anesthetic potency of two novel synthetic polyhydric alkanols longer than the n-alkanol cutoff: evidence for a bilayer-mediated mechanism of anesthesia?” (J Med Chem, 2005)

Experiment: Effective concentration for phenotypic endpoint in tadpoles
Set-up: species or system frog, Tadpole

CCCCCCO [1-HEXANOL]
EC50: ~700 µM
